Drawing on patent US8580799B2 (priority 2008, dated 2013), this text covers logp and chromatographic logP for 64 compounds.

A short description of the first series: Measurement of logP values by HPLC on reversed phase columns (EEC directive 79/831 Annex V.A8). The class given is physicochemical. The note with it: method [a]: pH 2.3 with 0.1% phosphoric acid and acetonitrile as eluent.
`Nc1ccnc(CON=C(c2ccccc2)c2nsnc2C(F)(F)F)n1` [Example 8]: the logp is 1.75^[a].
On the same count and under the same terms, the value for `CCCCCOC(=O)Nc1ccnc(CON=C(c2ccccc2)c2nsnc2C(F)(F)F)n1` [Example 9] was 4.92^[a]; that for `Nc1nc(CON=C(c2ccccc2)c2nsnc2C(F)(F)F)cs1` [Example 10] was 2.26^[a].
As for `O=C(Nc1ccnc(CON=C(c2ccccc2)c2nsnc2C(F)(F)F)n1)c1ccccc1` [Example 11], the logp is 4.14^[a].
As to `O=C(CCCc1ccccc1)Nc1ccnc(CON=C(c2ccccc2)c2nsnc2C(F)(F)F)n1` [Example 12], the logp is 4.65^[a].
Same read-out and setting: the same measure for `COCCOCC(=O)Nc1ccnc(CON=C(c2ccccc2)c2nsnc2C(F)(F)F)n1` [Example 13]: 3.46^[a]; for `CC(C)CC(=O)Nc1ccnc(CON=C(c2ccccc2)c2nsnc2C(F)(F)F)n1` [Example 14]: 4.09^[a].
Same read-out and setting: the same measure for `O=C(Cc1ccccc1)Nc1ccnc(CON=C(c2ccccc2)c2nsnc2C(F)(F)F)n1` [Example 15]: 4.09^[a]; for `CC(C)(C)C(=O)Nc1ccnc(CON=C(c2ccccc2)c2nsnc2C(F)(F)F)n1` [Example 16]: 4.24^[a].
Take `CCCCCC(=O)Nc1ccnc(CON=C(c2ccccc2)c2nsnc2C(F)(F)F)n1` [Example 17]: the logp is 4.54^[a].
As for `O=C1c2ccccc2C(=O)N1c1cccc(CON=C(c2ccccc2)c2nsnc2C(F)(F)F)n1` [Example 18], the logp is 4.31^[a].
On to `CCCCCOC(=O)Nc1cccc(CON=C(c2ccccc2)c2nsnc2C(F)(F)F)n1` [Example 19], for which the logp was 5.68^[a].

The same series, now with this note: method [b]: LC-MS at pH 2.7 with 0.1% formic acid in water and acetonitrile, linear gradient 10% to 95% acetonitrile.
For the compound `CCCCC#Cc1nc(CON=C(c2ccc(Cl)cc2)c2nnsc2C)cs1` [Example 4], the logp is 5.68^[b].
On the same count and under the same terms, the value for `CCCCC#Cc1nc(CON=C(c2ccc(F)cc2)c2nnsc2C)cs1` [Example 5] was 5.19^[b]; that for `CCCCC#Cc1nc(CON=C(c2cccc(F)c2)c2nnsc2C)cs1` [Example 7] was 5.25^[b]; that for `CCCCCOC(=O)Nc1cccc(CON=C(c2ccccc2)c2nsnc2C)n1` [Example 20] was 5.5^[b].
As to `Cc1nsnc1C(=NOCc1cccc(NC(=O)OC2CCCC2)n1)c1ccccc1` [Example 21], the logp is 5.11^[b].
The same measure, in the same setting: the value for `Cc1nsnc1C(=NOCc1cccc(NC(=O)OCc2ccccc2)n1)c1ccccc1` [Example 22] was 4.92^[b]; that for `CCCCCCOC(=O)Nc1cccc(CON=C(c2ccccc2)c2nsnc2C)n1` [Example 23] was 5.99^[b].
Still for that read-out and setting: the same measure for `C=CCCOC(=O)Nc1cccc(CON=C(c2ccccc2)c2nsnc2C)n1` [Example 24]: 4.65^[b]; for `CCCCCCCOC(=O)Nc1cccc(CON=C(c2ccccc2)c2nsnc2C)n1` [Example 26]: 6.42^[b].
On the same count and under the same terms, the value for `CCCCC(CC)COC(=O)Nc1cccc(CON=C(c2ccccc2)c2nsnc2C)n1` (stereo not drawn) [Example 27] was 6.76^[b].
In the case of `Cc1nsnc1C(=NOCc1cccc(NC(=O)OCCCCC(F)(F)F)n1)c1ccccc1` [Example 28], the logp was 4.97^[b].
The same measure, in the same setting: the value for `Cc1nsnc1C(=NOCc1cccc(N(C(=O)OC(C)(C)C)C(=O)OC(C)(C)C)n1)c1ccccc1` [Example 29] was 5.47^[b].
Still for that read-out and setting: the value for `CCCCNc1cccc(CON=C(c2ccccc2)c2nsnc2C)n1` [Example 32] was 2.41^[b]; that for `CCNc1cccc(CON=C(c2ccccc2)c2nsnc2C)n1` [Example 33] was 1.89^[b].
The same measure, in the same setting: the value for `CCCNc1cccc(CON=C(c2ccccc2)c2nsnc2C)n1` [Example 34] was 2.11^[b]; that for `C=CCCCCNc1cccc(CON=C(c2ccccc2)c2nsnc2C)n1` [Example 35] was 2.78^[b].
On to `Cc1nsnc1C(=NOCc1cccc(NCCCc2ccccc2)n1)c1ccccc1` [Example 36], for which the logp is 2.98^[b].
Regarding `Cc1nsnc1C(=NOCc1cccc(NCCC2CCCCC2)n1)c1ccccc1` [Example 37], the logp is 3.46^[b].
The same measure, in the same setting: the value for `CCCCCNc1cccc(CON=C(c2ccccc2)c2nsnc2C)n1` [Example 38] was 2.7^[b].
The same measure, in the same setting: the same measure for `CCCCCCNc1cccc(CON=C(c2ccccc2)c2nsnc2C(F)(F)F)n1` [Example 39]: 3.44^[b].
The same measure, in the same setting: the value for `CCCCC#Cc1nc(CON=C(c2ccccc2)c2nsnc2C(F)(F)F)cs1` [Example 40] was 6.37^[b]; that for `CCCCC#Cc1nc(CON=C(c2ccccc2)c2nsnc2C)cs1` [Example 41] was 5.72^[b].
`CCCCCCNc1cccc(CON=C(c2cccc(F)c2)c2nonc2C)n1` [Example 42]: the logp is 3.57^[b].
On the same count and under the same terms, the same measure for `CCCCCCNc1cccc(CON=C(c2ccccc2)c2nonc2C)n1` [Example 43]: 3.31^[b]; for `CCCCC#Cc1nc(CON=C(c2ccc(F)cc2)c2nonc2C)cs1` [Example 44]: 5.99^[b].
In the case of `CCCCC#Cc1nc(CON=C(c2ccccc2)c2nonc2C)cs1` [Example 45], the logp was 5.51^[b].
On to `CCCCC#Cc1nc(CON=C(c2cccc(F)c2)c2nonc2C)cs1` [Example 46], for which the logp was 5.59^[b].
For `CCCCC#Cc1nc(CON=C(c2ccccc2F)c2nonc2C)cs1` [Example 47], the logp was 5.39^[b].
On the same count and under the same terms, the same measure for `Cn1nccc1C(=NOCc1csc(N)n1)c1ccccc1` [Example 48]: 1.5^[b]; for `Cn1nccc1C(=NOCc1csc(Br)n1)c1ccccc1` [Example 49]: 3.39^[b]; for `Cn1nccc1C(=NOCc1csc(NC(=O)COc2ccccc2)n1)c1ccccc1` [Example 50]: 3.55^[b].
On the same count and under the same terms, the value for `Cn1nccc1C(=NOCc1csc(NC(=O)CCc2ccccc2)n1)c1ccccc1` [Example 51] was 3.69^[b]; that for `CCCCCC(=O)Nc1nc(CON=C(c2ccccc2)c2ccnn2C)cs1` [Example 52] was 3.8^[b]; that for `Cn1nccc1C(=NOCc1csc(NC(=O)Cc2ccccc2)n1)c1ccccc1` [Example 53] was 3.42^[b].
On the same count and under the same terms, the same measure for `Cn1nccc1C(=NOCc1csc(NC(=O)C(C)(C)C)n1)c1ccccc1` [Example 54]: 3.46^[b]; for `CCCCC(=O)Nc1nc(CON=C(c2ccccc2)c2ccnn2C)cs1` [Example 55]: 3.39^[b]; for `CCCCCCC(=O)Nc1nc(CON=C(c2ccccc2)c2ccnn2C)cs1` [Example 56]: 4.18^[b].
Regarding `Cn1nccc1C(=NOCc1csc(NC(=O)OCCCCCl)n1)c1ccccc1` [Example 57], the logp is 3.65^[b].
Still for that read-out and setting: the value for `CCCCOC(=O)Nc1nc(CON=C(c2ccccc2)c2ccnn2C)cs1` [Example 58] was 3.76^[b].

Staying with this series, now noted: reversed phase HPLC column; HCOOH (formic acid) method; read-out: log P(HCOOH).
Turning to `CCCCCCN(C(=O)OC(C)(C)C)c1cccc(CON2C(=O)c3ccccc3C2=O)n1`, the chromatographic logP came out at 5.48.
Take `CCCCCCN(C(=O)OC(C)(C)C)c1cccc(CON)n1`: the chromatographic logP worked out at 3.42.
For `Nc1nc(CON2C(=O)c3ccccc3C2=O)cs1` [2-[(2-amino-1,3-thiazol-4-yl)methoxy]-1H-isoindole-1,3(2H)-dione], the chromatographic logP is 0.74.
Same read-out and setting: the value for `O=C1c2ccccc2C(=O)N1OCc1csc(Br)n1` [2-[(2-bromo-1,3-thiazol-4-yl)methoxy]-1H-isoindole-1,3(2H)-dione] was 2.39.
For `Cc1nsnc1/C(=N\OCc1cccc(N2C(=O)c3ccccc3C2=O)n1)c1ccccc1` [2-{6-[({[(Z)-(4-methyl-1,2,5-thiadiazol-3-yl)(phenyl)methylene]amino}-oxy)methyl]pyridin-2-yl}-1H-isoindole-1,3(2H)-dione], the chromatographic logP came to 3.99.
Consider `CCCCC#Cc1nc(CON2C(=O)c3ccccc3C2=O)cs1` [2-{[2-(hex-1-yn-1-yl)-1,3-thiazol-4-yl]methoxy}-1H-isoindole-1,3(2H)-dione], for which the chromatographic logP worked out at 3.78.
As to `CCCCC#Cc1nc(CON)cs1` [4-[(aminooxy)methyl]-2-(hex-1-yn-1-yl)-1,3-thiazole], the chromatographic logP was 1.76.
Same read-out and setting: the same measure for `Cc1nsnc1/C(=N\OCc1cccc(N)n1)c1ccccc1` [6-[({[(Z)-(4-methyl-1,2,5-thiadiazol-3-yl)(phenyl)methylene]amino}oxy)-methyl]pyridin-2-amine]: 1.54; for `CCCCCCNc1cccc(CON=C(c2cccc(F)c2)c2nnsc2C)n1` [Example 1, 6-[({[(3-fluorophenyl)(5-methyl-1,2,3-thiadiazol-4-yl)methylene]amino}oxy)methyl]-N-hexylpyridin-2-amine]: 3.06; for `CCCCC#Cc1nc(CON=C(c2cccc(Cl)c2)c2nnsc2C)cs1` [Example 6, 1-(3-chlorophenyl)-N-([2-(hex-1-yn-1-yl)-1,3-thiazol-4-yl]methoxy)-1-(5-methyl-1,2,3-thiadiazol-4-yl)methanimine]: 5.68.
For the compound `CC#CCOC(=O)Nc1cccc(CON=C(c2ccccc2)c2nsnc2C)n1` [Example 25, But-2-yn-1-yl {6-[({[(4-methyl-1,2,5-thiadiazol-3-yl)(phenyl)methylidene]amino}oxy)-methyl]pyridin-2-yl}carbamate], the chromatographic logP worked out at 4.28.
On to `Cc1nsnc1C(=NOCc1cccc(NC(=O)OC(C)(C)C)n1)c1ccccc1` [Example 30, tert-butyl {6-[({[(4-methyl-1,2,5-thiadiazol-3-yl)(phenyl)methylene]-amino}oxy)methyl]pyridin-2-yl}carbamate], for which the chromatographic logP turned out to be 4.97.
On the same count and under the same terms, the same measure for `CCCCCCNc1cccc(CON=C(c2ccccc2)c2nsnc2C)n1` [Example 31, N-hexyl-6-[({[(4-methyl-1,2,5-thiadiazol-3-yl)(phenyl)methylidene]amino}oxy)methyl]-pyridin-2-amine]: 3.11.

Still in this series, the particulars now being: reversed phase HPLC column; method [b]: LC-MS at pH 2.7 with 0.1% formic acid in water and acetonitrile, linear gradient 10% to 95% acetonitrile; read-out: logp.
As to `CCCCCCNc1cccc(CON=C(c2cccc(F)c2)c2nnsc2C)n1` [Example 1, 6-[({[(3-fluorophenyl)(5-methyl-1,2,3-thiadiazol-4-yl)methylene]amino}oxy)methyl]-N-hexylpyridin-2-amine], the chromatographic logP worked out at 3.06.
On to `CCCCC#Cc1nc(CON=C(c2cccc(Cl)c2)c2nnsc2C)cs1` [Example 6, 1-(3-chlorophenyl)-N-([2-(hex-1-yn-1-yl)-1,3-thiazol-4-yl]methoxy)-1-(5-methyl-1,2,3-thiadiazol-4-yl)methanimine], for which the chromatographic logP is 5.68.
With `CC#CCOC(=O)Nc1cccc(CON=C(c2ccccc2)c2nsnc2C)n1` [Example 25, But-2-yn-1-yl {6-[({[(4-methyl-1,2,5-thiadiazol-3-yl)(phenyl)methylidene]amino}oxy)-methyl]pyridin-2-yl}carbamate], the chromatographic logP is 4.28.
For the compound `Cc1nsnc1C(=NOCc1cccc(NC(=O)OC(C)(C)C)n1)c1ccccc1` [Example 30, tert-butyl {6-[({[(4-methyl-1,2,5-thiadiazol-3-yl)(phenyl)methylene]-amino}oxy)methyl]pyridin-2-yl}carbamate], the chromatographic logP was 4.97.
On the same count and under the same terms, the value for `CCCCCCNc1cccc(CON=C(c2ccccc2)c2nsnc2C)n1` [Example 31, N-hexyl-6-[({[(4-methyl-1,2,5-thiadiazol-3-yl)(phenyl)methylidene]amino}oxy)methyl]-pyridin-2-amine] was 3.11.
